For data set [1], the target named is T1, ABCG2 (Homo sapiens, UniProt Q9UNQ0).
T1 sequence (Q9UNQ0 1-655): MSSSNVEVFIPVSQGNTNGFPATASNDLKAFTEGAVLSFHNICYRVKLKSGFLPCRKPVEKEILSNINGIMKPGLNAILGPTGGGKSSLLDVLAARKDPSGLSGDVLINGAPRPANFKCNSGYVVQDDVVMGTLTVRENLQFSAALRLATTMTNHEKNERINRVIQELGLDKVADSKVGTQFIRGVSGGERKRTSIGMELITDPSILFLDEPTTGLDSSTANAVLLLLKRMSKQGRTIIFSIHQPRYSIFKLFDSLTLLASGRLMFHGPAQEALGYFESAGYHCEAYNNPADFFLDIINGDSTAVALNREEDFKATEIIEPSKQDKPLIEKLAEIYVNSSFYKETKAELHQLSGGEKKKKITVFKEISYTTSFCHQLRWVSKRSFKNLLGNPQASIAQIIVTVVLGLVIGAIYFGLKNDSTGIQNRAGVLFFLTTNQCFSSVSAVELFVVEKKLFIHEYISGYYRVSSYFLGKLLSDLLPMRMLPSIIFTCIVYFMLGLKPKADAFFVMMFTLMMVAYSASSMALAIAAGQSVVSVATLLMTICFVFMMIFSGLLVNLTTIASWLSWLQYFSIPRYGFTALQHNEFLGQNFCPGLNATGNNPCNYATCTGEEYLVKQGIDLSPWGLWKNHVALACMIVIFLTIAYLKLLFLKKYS
Description: Cell-based transport assay by confocal microscopy. Details: expressed in transfected cells; host or cells: HEK293 (stably transfected, G418 selection; gift of Dr. Attilio Di Pietro). Particulars: 10 µM, hoechst 33342 2 µM. How it is done: Cells were seeded into 24-well plates at a density of 1 × 10^5 cells/well containing coverslips for microscopy and incubated for 48 h at 37 °C and 5% of CO2. Cells that adhered to the coverslips were treated with C4a and hoechst 33342 for 30 min at 37 °C. Then, the cell monolayer was washed with PBS at 37 °C and the coverslips removed from the plate and placed on slides for microscopy. The slides were then read in a confocal microscope Nikon A1R MP + (NIKON, Tokyo, Japan) using an oil-immersed 40× objective (with the numerical aperture of 1.15). A laser of 405 nm was used for excitation and the fluorescence emission was recorded using a bandpass filter of 425–475 nm. The software Nis Elements 4.20 (NIKON, Tokyo, Japan) was used for visualization of the images.

Data set [2] concerns the target T1, ABCG2. Further details: expressed in transfected cells; host or cells: HEK293 (stably transfected, G418 selection; gift of Dr. Attilio Di Pietro). Particulars: read-out: IC50 of ABCG2 inhibition; cited from earlier work.
The target in data set [3] is P-gp (Homo sapiens, UniProt P08183). Put plainly: ATPase activity, High-Five P-gp total membrane vesicles.
P-gp, sequence (P08183 whole entry): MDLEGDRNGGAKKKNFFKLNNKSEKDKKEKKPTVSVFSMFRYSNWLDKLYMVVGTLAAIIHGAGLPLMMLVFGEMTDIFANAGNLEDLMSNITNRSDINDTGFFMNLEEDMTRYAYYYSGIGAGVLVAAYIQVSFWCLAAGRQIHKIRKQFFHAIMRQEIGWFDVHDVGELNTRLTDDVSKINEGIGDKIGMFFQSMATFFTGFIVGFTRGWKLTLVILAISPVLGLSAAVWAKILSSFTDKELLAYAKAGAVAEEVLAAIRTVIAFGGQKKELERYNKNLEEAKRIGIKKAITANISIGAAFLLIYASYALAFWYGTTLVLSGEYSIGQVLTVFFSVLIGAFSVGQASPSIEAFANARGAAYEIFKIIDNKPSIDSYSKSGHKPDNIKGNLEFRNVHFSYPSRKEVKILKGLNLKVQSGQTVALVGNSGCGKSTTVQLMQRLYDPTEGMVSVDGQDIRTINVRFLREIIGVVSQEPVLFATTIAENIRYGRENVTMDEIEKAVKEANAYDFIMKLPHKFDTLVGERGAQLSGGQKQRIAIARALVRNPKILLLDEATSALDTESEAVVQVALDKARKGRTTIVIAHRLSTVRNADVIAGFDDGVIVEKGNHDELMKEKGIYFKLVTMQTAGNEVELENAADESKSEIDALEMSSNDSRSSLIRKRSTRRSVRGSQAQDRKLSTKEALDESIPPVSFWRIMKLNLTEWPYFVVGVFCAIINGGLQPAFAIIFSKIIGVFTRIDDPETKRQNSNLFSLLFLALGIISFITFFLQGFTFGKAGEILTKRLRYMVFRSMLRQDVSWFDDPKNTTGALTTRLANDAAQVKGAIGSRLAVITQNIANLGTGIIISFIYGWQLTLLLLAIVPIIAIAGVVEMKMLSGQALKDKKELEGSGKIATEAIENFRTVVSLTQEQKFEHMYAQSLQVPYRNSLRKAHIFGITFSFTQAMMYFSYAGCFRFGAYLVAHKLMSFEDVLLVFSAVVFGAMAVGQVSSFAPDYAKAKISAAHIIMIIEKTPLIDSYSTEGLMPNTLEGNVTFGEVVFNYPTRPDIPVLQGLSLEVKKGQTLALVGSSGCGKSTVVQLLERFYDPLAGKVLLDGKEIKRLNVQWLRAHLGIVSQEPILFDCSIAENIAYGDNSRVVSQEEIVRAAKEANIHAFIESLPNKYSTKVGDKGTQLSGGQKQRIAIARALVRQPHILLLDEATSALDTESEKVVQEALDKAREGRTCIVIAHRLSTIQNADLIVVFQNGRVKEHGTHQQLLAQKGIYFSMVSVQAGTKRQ
Description: The absorbance was measured after 10 min incubation at room temperature using the spectrophotometer Ultrospec 3100 pro (Amersham Biosciences, Amersham, UK) at 880 nm wavelength.

These results are taken from article PMC10144134, “Characterization of Potent ABCG2 Inhibitor Derived from Chromone: From the Mechanism of Inhibition to Human Extracellular Vesicles for Drug Delivery” (Pharmaceutics, 2023).

In general, IC50 refers to the concentration that inhibits the measured activity by half. As usually defined, the EC50 is the concentration giving half of the maximal effect.

With `COc1ccc2[nH]cc(CCNC(=O)c3cc(=O)c4c(OCc5ccccc5Br)cccc4o3)c2c1` [C4a, chromone 4a], the “inhibition of hoechst 33342 efflux mediated by ABCG2 (confocal microscopy)” value in data set [1] is given as “inhibited the efflux of all”. Moreover, the IC50 in data set [2] was 86 nM. Also, in data set [3], the response was half-maximal at 4300 nM (EC50).
